In one test the target is CDK2/cyclin A (Homo sapiens, UniProt P24941). The test can be described thus: CDK2/cyclin A kinase assay. The format is biochemical.
The target of another test is CDK9/cyclin T1 (Homo sapiens, UniProt P50750). Nature of the test: CDK9/cyclin T1 kinase assay. The format is biochemical.
For test [1], the system named is KB (nasopharyngeal carcinoma). The test can be described thus: SRB assay, KB. The conditions noted are these: Homo sapiens, 72 h, read-out: GI50 KB. (In general: Sulforhodamine B stains cellular protein and so reports cell mass.)
Another test deals with A549 (lung cancer). The test can be described thus: SRB assay, A549. The conditions noted are these: Homo sapiens, A549, 72 h, read-out: GI50 A549.
For test [2], the system named is MCF-7 (Michigan Cancer Foundation-7). The test can be described thus: SRB assay, MCF-7. The conditions noted are these: Homo sapiens, MCF7, 72 h, read-out: GI50 MCF-7.
Test [3] has as its system MDA-MB-231 (human breast carcinoma cell line). The test can be described thus: SRB assay, MDA-MB-231. The conditions noted are these: MDA-MB-231, 72 h, read-out: GI50 MDA-MB-231.
The test system of another test is MDA-MB-231 cells. Nature of the test: Cell cycle analysis by flow cytometry. The format is cell-based, human. The conditions noted are these: 24 h, five-fold GI50 (2a 6.0 μM, 2d 8.0 μM, 3b 10.5 μM). (In flow cytometry, cells or beads pass a laser one at a time.)

“Also recorded” adds a separate entry of the source. Bounds are passed on as bounds.

The results in this text go back to paper PMC5890689 (RSC Advances, 2018).

Chain of CDK9/cyclin T1 (P50750 whole entry): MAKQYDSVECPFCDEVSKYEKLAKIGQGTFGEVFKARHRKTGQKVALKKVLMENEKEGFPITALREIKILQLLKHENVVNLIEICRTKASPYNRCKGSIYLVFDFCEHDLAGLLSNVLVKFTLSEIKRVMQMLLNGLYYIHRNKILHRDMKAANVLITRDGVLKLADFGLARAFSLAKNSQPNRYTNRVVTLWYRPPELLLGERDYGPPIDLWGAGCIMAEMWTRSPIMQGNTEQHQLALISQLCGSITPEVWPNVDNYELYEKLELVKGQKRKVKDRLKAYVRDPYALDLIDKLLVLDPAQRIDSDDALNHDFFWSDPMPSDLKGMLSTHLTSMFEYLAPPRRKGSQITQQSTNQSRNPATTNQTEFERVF
Chain of CDK9/cyclin T1 (O60563 whole entry partner): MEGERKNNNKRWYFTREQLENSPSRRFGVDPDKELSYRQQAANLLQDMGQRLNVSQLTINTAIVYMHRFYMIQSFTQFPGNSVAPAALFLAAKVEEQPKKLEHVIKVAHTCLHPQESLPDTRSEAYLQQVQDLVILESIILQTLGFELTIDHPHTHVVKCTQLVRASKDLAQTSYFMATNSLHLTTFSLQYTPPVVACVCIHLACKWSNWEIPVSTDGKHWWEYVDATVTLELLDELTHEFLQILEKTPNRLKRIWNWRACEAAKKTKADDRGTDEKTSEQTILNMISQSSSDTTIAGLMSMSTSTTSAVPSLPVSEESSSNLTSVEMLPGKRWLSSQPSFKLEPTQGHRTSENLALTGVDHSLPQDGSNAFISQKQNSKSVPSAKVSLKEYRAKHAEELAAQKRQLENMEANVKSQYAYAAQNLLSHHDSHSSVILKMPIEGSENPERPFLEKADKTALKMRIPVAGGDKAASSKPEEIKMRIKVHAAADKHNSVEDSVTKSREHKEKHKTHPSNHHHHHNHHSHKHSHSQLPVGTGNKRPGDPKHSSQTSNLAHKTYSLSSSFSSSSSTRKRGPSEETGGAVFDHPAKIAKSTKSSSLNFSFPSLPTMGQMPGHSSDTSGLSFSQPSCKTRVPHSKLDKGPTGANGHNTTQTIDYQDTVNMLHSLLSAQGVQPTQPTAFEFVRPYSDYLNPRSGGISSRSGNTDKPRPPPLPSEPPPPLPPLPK

Consider `CN(C)CC(=O)Nc1cccc(Nc2ncc(F)c(Nc3ccc(Cl)cc3)n2)c1` [2c, N-(3-((4-((4-Chlorophenyl)amino)-5-fluoropyrimidin-2-yl)amino)phenyl)-2-(dimethylamino)acetamide], for which the half-maximal inhibitory concentration (IC50) against CDK2/cyclin A came out at 0.91 ± 0.11 µM; against CDK9/cyclin T1 it was 1.1 ± 0.02 µM. For the same molecule, the 50% growth inhibitory concentration (GI50) in test [1] turned out to be 2.03 ± 0.32 µM; in the test with A549 (lung cancer) it was 2.12 ± 0.26 µM; in test [2], 3.94 ± 0.31 µM; in test [3], 6.77 ± 0.38 µM.
For the molecule `CC(=O)c1ccc(Nc2nc(Nc3cccc(NC(=O)CN(C)C)c3)ncc2F)cc1` [2b, N-(3-((4-((4-Acetylphenyl)amino)-5-fluoropyrimidin-2-yl)amino)phenyl)-2-(dimethylamino)acetamide], the IC50 was found to be 0.78 ± 0.04 µM against CDK2/cyclin A and 0.39 ± 0.08 µM against CDK9/cyclin T1. For the same molecule, the 50% growth inhibitory concentration (GI50) in test [1] stood at 2.2 ± 0.37 µM; in the test on A549 (lung cancer) it was 2.33 ± 0.03 µM; in test [2] it was 3.8 ± 0.24 µM; in test [3], 5.8 ± 0.08 µM.
On to `Cc1ccc(Nc2ncc(F)c(Nc3c(F)cccc3F)n2)cc1N1CCOCC1` [3o, N ^4-(2,6-difluorophenyl)-5-fluoro-N^2-(4-methyl-3-morpholinophenyl)pyrimidine-2,4-diamine], for which the IC50 against CDK2/cyclin A came to 5.6 ± 0.03 µM; against CDK9/cyclin T1 it was 0.74 ± 0.04 µM. Moreover, on CDK9/cyclin T1 (ratio of IC50 CDK2/cyclin A to CDK9/cyclin T1), the “subtype selectivity for CDK9 over CDK2” value was determined as 7.5 fold. In addition, the GI50 in test [1] is 0.98 ± 0.05 µM; in the test with A549 (lung cancer) it was 0.85 ± 0.01 µM; in test [2] it was 3.75 ± 0.28 µM; in test [3], 7 ± 0.06 µM.
As for `CN(C)CC(=O)Nc1cccc(Nc2ncc([N+](=O)[O-])c(Nc3c(F)cccc3F)n2)c1` [2i, N-(3-((4-((2,6-Difluorophenyl)amino)-5-nitropyrimidin-2-yl)amino)phenyl)-2-(dimethylamino)acetamide], the IC50 against CDK2/cyclin A was 0.78 ± 0.12 µM; against CDK9/cyclin T1, 0.48 ± 0.08 µM. In addition, the 50% growth inhibitory concentration (GI50) is 5.73 ± 0.35 µM in test [1], 4.9 ± 0.45 µM in the test with A549 (lung cancer), 10.23 ± 0.03 µM in test [2] and 5.94 ± 0.33 µM in test [3].
Turning to `CC(C)CC(=O)Nc1cccc(Nc2ncc(F)c(Nc3c(F)cccc3F)n2)c1` [3a, N-(3-((4-((2,6-Difluorophenyl)amino)-5-fluoropyrimidin-2-yl)amino)phenyl)-3-methylbutanamide], the values for the IC50 at CDK2/cyclin A and against CDK9/cyclin T1 were 1.1 ± 0.15 µM and 0.48 ± 0.22 µM, respectively. The GI50 in test [1] was 0.59 ± 0.05 µM; with A549 (lung cancer), 0.72 ± 0.04 µM; in test [2] it was 5.97 ± 0.19 µM; in test [3] it was greater than 10 µM.
On to `CN(C)CCNC(=O)c1cccc(Nc2ncc(F)c(Nc3c(F)cccc3F)n2)c1` [3e, 3-((4-((2,6-Difluorophenyl)amino)-5-fluoropyrimidin-2-yl)amino)-N-(2-(dimethylamino)ethyl)benzamide], for which the IC50 at CDK2/cyclin A amounted to 0.75 ± 0.14 µM; against CDK9/cyclin T1, 0.23 ± 0.01 µM. Further, the GI50 in test [1] was 3.82 ± 0.11 µM; with A549 (lung cancer), 0.72 ± 0.01 µM; in test [2], 6.73 ± 0.23 µM; in test [3] it was 5.42 ± 0.35 µM.
For the molecule `CN(C)CC(=O)Nc1ccc(Nc2ncc(F)c(Nc3c(F)cccc3F)n2)cc1` [3k, N-(4-((4-((2,6-Difluorophenyl)amino)-5-fluoropyrimidin-2-yl)amino)phenyl)-2-(dimethylamino)acetamide], the GI50 in test [1] turned out to be 3.8 ± 0.34 µM; in the test with A549 (lung cancer), 3.04 ± 0.18 µM; in test [2] it was 4.48 ± 0.39 µM; in test [3], 6.01 ± 0.08 µM.
As for `COc1ccc(Nc2nc(Nc3cccc(NC(=O)CN(C)C)c3)ncc2F)cc1` [2a, 2-(Dimethylamino)-N-(3-((5-fluoro-4-((4-methoxyphenyl)amino)pyrimidin-2-yl)amino)phenyl)acetamide], the IC50 against CDK2/cyclin A was 0.32 ± 0.28 µM; against CDK9/cyclin T1 it was 0.3 ± 0.01 µM. In addition, in the test on MDA-MB-231 cells, the “Effect on cell cycle progression” value was “induced cell cycle arrest in G2/M phase; also recorded: induced cell cycle arrest at G2/M”. Besides, the concentration for 50% growth inhibition (GI50) in test [1] was determined as 0.57 ± 0.01 µM; with A549 (lung cancer), 0.72 ± 0.01 µM; in test [2], 0.67 ± 0.06 µM; in test [3], 1.2 ± 0.06 µM.
With `COc1ccc(Nc2ncc(F)c(Nc3c(F)cccc3F)n2)cc1NC(=O)CN(C)C` [3i, N-(5-((4-((2,6-Difluorophenyl)amino)-5-fluoropyrimidin-2-yl)amino)-2-methoxyphenyl)-2-(dimethylamino)acetamide], the GI50 amounted to 2.87 ± 0.24 µM in test [1], 0.7 ± 0.002 µM in the test with A549 (lung cancer), 1.88 ± 0.12 µM in test [2] and 4.05 ± 0.14 µM in test [3].
As to `CN(C)CC(=O)Nc1cccc(Nc2ncc(F)c(Nc3cc(F)cc(F)c3)n2)c1` [2g, N-(3-((4-((3,5-Difluorophenyl)amino)-5-fluoropyrimidin-2-yl)amino)phenyl)-2-(dimethylamino)acetamide], the values for the 50% inhibitory concentration (IC50) on CDK2/cyclin A and at CDK9/cyclin T1 were 0.57 ± 0.05 µM and 0.49 ± 0.27 µM, respectively. The 50% growth inhibitory concentration (GI50) was found to be 0.56 ± 0.08 µM in test [1], 0.71 ± 0.06 µM with A549 (lung cancer), 0.67 ± 0.03 µM in test [2] and 4.64 ± 0.06 µM in test [3].
Turning to `CC(C)(C)NCC(=O)Nc1cccc(Nc2ncc(F)c(Nc3c(F)cccc3F)n2)c1` [3b, 2-(tert-Butylamino)-N-(3-((4-((2,6-difluorophenyl)amino)-5-fluoropyrimidin-2-yl)amino)phenyl)acetamide], the IC50 against CDK2/cyclin A is 0.38 ± 0.06 µM; against CDK9/cyclin T1 it was 0.08 ± 0.001 µM. Moreover, the “Effect on cell cycle progression” value in the test with MDA-MB-231 cells is reported as “induced cell cycle arrest in G2/M phase; also recorded: induced cell cycle arrest at G2/M”. The GI50 in test [1] was determined as 3.27 ± 0.13 µM; in the test on A549 (lung cancer), 1.31 ± 0.18 µM; in test [2], 2.73 ± 0.48 µM; in test [3], 2.07 ± 0.12 µM.
As to `CN(C)CC(=O)Nc1cccc(Nc2ncc(F)c(Nc3ccc(N(C)C)cc3)n2)c1` [2d, 2-(Dimethylamino)-N-(3-((4-((4-(dimethylamino)phenyl)amino)-5-fluoropyrimidin-2-yl)amino)phenyl)acetamide], the figures for the IC50 against CDK2/cyclin A and at CDK9/cyclin T1 were 0.94 ± 0.43 µM and 0.32 ± 0.05 µM, respectively. Further, the “Effect on cell cycle progression” value in the test with MDA-MB-231 cells is “induced cell cycle arrest in G2/M phase; also recorded: induced cell cycle arrest at G2/M”. Further, the GI50 is 3.08 ± 0.16 µM in test [1], 1.89 ± 0.19 µM in the test on A549 (lung cancer), 2.83 ± 0.03 µM in test [2] and 1.64 ± 0.15 µM in test [3].
As for `CN(C)CC(=O)Nc1cccc(Nc2ncc(F)c(Nc3c(F)cccc3F)n2)c1` [2e, N-(3-((4-((2,6-Difluorophenyl)amino)-5-fluoropyrimidin-2-yl)amino)phenyl)-2-(dimethylamino)acetamide], the concentration for 50% growth inhibition (GI50) in test [1] worked out at 4.78 ± 0.38 µM; with A549 (lung cancer) it was 1.31 ± 0.07 µM; in test [2], 4.49 ± 0.03 µM; in test [3] it was 3.98 ± 0.16 µM.
`CN1CCC(C(=O)Nc2cccc(Nc3ncc(F)c(Nc4c(F)cccc4F)n3)c2)CC1` [3d, N-(3-((4-((2,6-Difluorophenyl)amino)-5-fluoropyrimidin-2-yl)amino)phenyl)-1-methylpiperidine-4-carboxamide]: the IC50 against CDK2/cyclin A amounted to 0.13 ± 0.02 µM; against CDK9/cyclin T1, 0.66 ± 0.02 µM. The GI50 was 2.6 ± 0.45 µM in test [1], 1.09 ± 0.03 µM with A549 (lung cancer), 6.16 ± 0.14 µM in test [2] and 3.3 ± 0.23 µM in test [3].
Consider `CN1CCN(c2cccc(Nc3ncc(F)c(Nc4c(F)cccc4F)n3)c2)CC1` [3m, N ^4-(2,6-Difluorophenyl)-5-fluoro-N^2-(3-(4-methylpiperazin-1-yl)phenyl) pyrimidine-2,4-diamine], for which the values for the IC50 on CDK2/cyclin A and at CDK9/cyclin T1 were 0.47 ± 0.04 µM and 0.29 ± 0.002 µM, respectively. For the same molecule, the 50% growth inhibitory concentration (GI50) in test [1] was 0.4 ± 0.09 µM; in the test on A549 (lung cancer), 1.25 ± 0.08 µM; in test [2], 7.76 ± 0.52 µM; in test [3] it was 2.84 ± 0.67 µM.
`Cc1ccc(Nc2ncc(F)c(Nc3c(F)cccc3F)n2)cc1NC(=O)CN(C)C` [3j, N-(5-((4-((2,6-Difluorophenyl)amino)-5-fluoropyrimidin-2-yl)amino)-2-methylphenyl)-2-(dimethylamino)acetamide]: the 50% growth inhibitory concentration (GI50) worked out at 0.6 ± 0.04 µM in test [1], 1.15 ± 0.08 µM with A549 (lung cancer), 2.37 ± 0.62 µM in test [2] and 5.31 ± 0.19 µM in test [3].
With `CN(C)CC(=O)Nc1cccc(Nc2ncc(F)c(NN3CCN(C)CC3)n2)c1` [2h, 2-(Dimethylamino)-N-(3-((5-fluoro-4-((4-methylpiperazin-1-yl)amino)pyrimidin-2-yl)amino)phenyl)acetamide], the IC50 is 5.6 ± 0.53 µM on CDK2/cyclin A and 2.2 ± 0.32 µM at CDK9/cyclin T1. Further, the GI50 (in test [1]; in the test on A549 (lung cancer); in test [2]; in test [3]) was greater than 10 µM in each case.
In the case of `CN(C)CC(=O)Nc1cccc(Nc2ncc(F)c(Nc3c(Cl)cccc3Cl)n2)c1` [2f, N-(3-((4-((2,6-Dichlorophenyl)amino)-5-fluoropyrimidin-2-yl)amino)phenyl)-2-(dimethylamino)acetamide], the IC50 against CDK2/cyclin A was 1.6 ± 0.11 µM; on CDK9/cyclin T1, 0.57 ± 0.12 µM. Further, the GI50 was 7.04 ± 0.08 µM in test [1], 3.47 ± 0.44 µM in the test with A549 (lung cancer), 6.02 ± 0.51 µM in test [2] and 13 ± 0.38 µM in test [3].
Regarding `CN1CCCN(c2cccc(Nc3ncc(F)c(Nc4c(F)cccc4F)n3)c2)CC1` [3n, N ^4-(2,6-Difluorophenyl)-5-fluoro-N^2-(3-(4-methyl-1,4-diazepan-1-yl)phenyl) pyrimidine-2,4-diamine], the IC50 came out at 0.95 ± 0.27 µM at CDK2/cyclin A and 1.6 ± 0.1 µM on CDK9/cyclin T1. Moreover, the 50% growth inhibitory concentration (GI50) in test [1] worked out at 4.44 ± 0.42 µM; in the test on A549 (lung cancer), 0.71 ± 0.01 µM; in test [2] it was 7.16 ± 0.54 µM; in test [3], 4.77 ± 0.27 µM.
Consider `CN(C)CCC(=O)Nc1cccc(Nc2ncc(F)c(Nc3c(F)cccc3F)n2)c1` [3c, N-(3-((4-((2,6-Difluorophenyl)amino)-5-fluoropyrimidin-2-yl)amino)phenyl)-3-(dimethylamino)propanamide], for which the IC50 against CDK2/cyclin A worked out at 0.3 ± 0.07 µM; against CDK9/cyclin T1 it was 0.065 ± 0.023 µM. Also, the GI50 in test [1] was determined as 2.31 ± 0.11 µM; with A549 (lung cancer), 1.2 ± 0.05 µM; in test [2], 2.65 ± 0.4 µM; in test [3], 3.24 ± 0.05 µM.

One may read the IC50 as the concentration that gives 50% inhibition. A low value points to higher potency. As usually defined, the GI50 is the concentration that inhibits growth by half.
